Experimental data taken from patent US9932340B2, “Substituted indoles” (AbbVie Inc., priority 2014, dated 2018).

Target: SUV420H1 enzyme (Homo sapiens, UniProt Q4FZB7)
Assay: TR-FRET SAH SUV420H1 enzyme inhibition assay
Type: biochemical
Conditions: Histone Peptide H4(8-30)me1 and SAM, overnight at room temp, TR-FRET detection of SAH, read-out: TR-FRET SAH_SUV420H1 IC50
In short: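 SUV420H1 (90 nM) preincubated 30 min with compound (3-fold dilutions, 50 to 0.00075 μM), then H4(8-30)me1 peptide 5 nM and SAM 4 nM added, overnight at room temp. SAH product detected by TR-FRET with Tb anti-SAH antibody and Oregon Green-SAH in RIPA buffer, 4 h; IC50 from Hill fit, asymptotes fixed 0-100%.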

SUV420H1 enzyme, sequence (Q4FZB7 whole entry): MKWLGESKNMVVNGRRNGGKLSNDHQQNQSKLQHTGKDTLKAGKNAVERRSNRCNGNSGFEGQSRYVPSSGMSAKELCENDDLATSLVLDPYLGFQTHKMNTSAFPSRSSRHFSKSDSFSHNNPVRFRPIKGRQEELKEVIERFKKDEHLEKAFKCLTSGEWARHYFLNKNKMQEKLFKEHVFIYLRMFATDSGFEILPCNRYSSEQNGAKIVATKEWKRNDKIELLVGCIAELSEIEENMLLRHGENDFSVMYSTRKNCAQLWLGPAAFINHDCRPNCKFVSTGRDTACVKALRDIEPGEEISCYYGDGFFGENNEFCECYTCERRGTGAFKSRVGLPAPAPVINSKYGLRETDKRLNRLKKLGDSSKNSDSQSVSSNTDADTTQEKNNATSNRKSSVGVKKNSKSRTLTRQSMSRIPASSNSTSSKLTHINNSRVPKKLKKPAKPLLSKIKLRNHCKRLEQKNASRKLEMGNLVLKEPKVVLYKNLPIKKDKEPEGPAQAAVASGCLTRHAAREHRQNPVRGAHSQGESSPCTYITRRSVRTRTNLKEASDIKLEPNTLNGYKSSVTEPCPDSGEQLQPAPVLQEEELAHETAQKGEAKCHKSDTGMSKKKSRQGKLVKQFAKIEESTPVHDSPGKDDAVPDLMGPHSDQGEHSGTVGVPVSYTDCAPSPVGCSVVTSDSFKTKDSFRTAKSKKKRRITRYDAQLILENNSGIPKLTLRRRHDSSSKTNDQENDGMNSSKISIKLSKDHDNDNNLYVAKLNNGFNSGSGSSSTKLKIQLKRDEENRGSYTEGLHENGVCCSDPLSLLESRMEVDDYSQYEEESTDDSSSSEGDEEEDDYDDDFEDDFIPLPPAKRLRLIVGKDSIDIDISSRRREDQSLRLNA

Row | IC50 [nM] | Compound
1 | > 50000 | CN(C)c1ccc(C(=O)NCc2cc3cc(Cl)cc(Cn4cnc5c(N)ncnc54)c3[nH]2)cc1 [Example 302, N-({7-[(6-amino-9H-purin-9-yl)methyl]-5-chloro-1H-indol-2-yl}methyl)-4-(dimethylamino)benzamide]
2 | 72.3 | Cc1cc(C#N)ccc1C(=O)NCc1cc2cc(Cl)cc(Cn3cnc4c(N)ncnc43)c2[nH]1 [Example 303, N-({7-[(6-amino-9H-purin-9-yl)methyl]-5-chloro-1H-indol-2-yl}methyl)-4-cyano-2-methylbenzamide]
3 | 49.1 | Cc1cc(C#N)ccc1C(=O)NCc1cc2cc(C3=CCOCC3)cc(Cn3cnc4c(N)ncnc43)c2[nH]1 [Example 304, N-({7-[(6-amino-9H-purin-9-yl)methyl]-5-(3,6-dihydro-2H-pyran-4-yl)-1H-indol-2-yl}methyl)-4-cyano-2-methylbenzamide]
4 | 36.7 | Cc1cc(C#N)ccc1C(=O)NCc1cc2cc(C3=CCNCC3)cc(Cn3cnc4c(N)ncnc43)c2[nH]1 [Example 305, N-({7-[(6-amino-9H-purin-9-yl)methyl]-5-(1,2,3,6-tetrahydropyridin-4-yl)-1H-indol-2-yl}methyl)-4-cyano-2-methylbenzamide]
5 | 56.4 | Cc1cc(C#N)ccc1C(=O)NCc1cc2cc(C3=CCC(F)(F)CC3)cc(Cn3cnc4c(N)ncnc43)c2[nH]1 [Example 306, N-({7-[(6-amino-9H-purin-9-yl)methyl]-5-(4,4-difluorocyclohex-1-en-1-yl)-1H-indol-2-yl}methyl)-4-cyano-2-methylbenzamide]
6 | 29.7 | CC(=O)N1CC=C(c2cc(Cn3cnc4c(N)ncnc43)c3[nH]c(CNC(=O)c4ccc(C#N)cc4C)cc3c2)CC1 [Example 307, N-({5-(1-acetyl-1,2,3,6-tetrahydropyridin-4-yl)-7-[(6-amino-9H-purin-9-yl)methyl]-1H-indol-2-yl}methyl)-4-cyano-2-methylbenzamide]
7 | 50 | Cc1cc(C#N)ccc1C(=O)NCc1cc2cc(C3=CCN(C(=O)OC(C)(C)C)CC3)cc(Cn3cnc4c(N)ncnc43)c2[nH]1 [Example 308]
8 | 7310 | CN(C)c1cccc(C(=O)NCc2cc3cc(Cl)cc(Cn4cnc5c(N)ncnc54)c3[nH]2)c1 [Example 309, N-({7-[(6-amino-9H-purin-9-yl)methyl]-5-chloro-1H-indol-2-yl}methyl)-3-(dimethylamino)benzamide]
9 | 13200 | CCNc1ccccc1C(=O)NCc1cc2cc(Cl)cc(Cn3cnc4c(N)ncnc43)c2[nH]1 [Example 310, N-({7-[(6-amino-9H-purin-9-yl)methyl]-5-chloro-1H-indol-2-yl}methyl)-2-(ethylamino)benzamide]
10 | 3240 | COc1cc(C#N)ccc1CNCc1cc2cc(Cl)cc(Cn3cnc4c(N)ncnc43)c2[nH]1 [Example 311, 4-{[({7-[(6-amino-9H-purin-9-yl)methyl]-5-chloro-1H-indol-2-yl}methyl)amino]methyl}-3-methoxybenzonitrile]
11 | > 50000 | COc1ccccc1CNC(=O)NCc1cc2cc(Cl)cc(Cn3cnc4c(N)ncnc43)c2[nH]1 [Example 312, 1-({7-[(6-amino-9H-purin-9-yl)methyl]-5-chloro-1H-indol-2-yl}methyl)-3-(2-methoxybenzyl)urea]
12 | > 50000 | CC(=O)Nc1ccc(C(=O)NCc2cc3cc(Cl)cc(Cn4cnc5c(N)ncnc54)c3[nH]2)cc1 [Example 313, 4-(acetylamino)-N-({7-[(6-amino-9H-purin-9-yl)methyl]-5-chloro-1H-indol-2-yl}methyl)benzamide]
13 | 1930 | CC(C)c1ccccc1C(=O)NCc1cc2cc(Cl)cc(Cn3cnc4c(N)ncnc43)c2[nH]1 [Example 314, N-({7-[(6-amino-9H-purin-9-yl)methyl]-5-chloro-1H-indol-2-yl}methyl)-2-(propan-2-yl)benzamide]
14 | 4080 | COc1ccc(CCC(=O)NCc2cc3cc(Cl)cc(Cn4cnc5c(N)ncnc54)c3[nH]2)cc1 [Example 315, N-({7-[(6-amino-9H-purin-9-yl)methyl]-5-chloro-1H-indol-2-yl}methyl)-3-(4-methoxyphenyl)propanamide]
15 | 13000 | COc1cccc(CCC(=O)NCc2cc3cc(Cl)cc(Cn4cnc5c(N)ncnc54)c3[nH]2)c1 [Example 316, N-({7-[(6-amino-9H-purin-9-yl)methyl]-5-chloro-1H-indol-2-yl}methyl)-3-(3-methoxyphenyl)propanamide]
16 | 4500 | CN(C)c1ccc(CC(=O)NCc2cc3cc(Cl)cc(Cn4cnc5c(N)ncnc54)c3[nH]2)cc1 [Example 317, N-({7-[(6-amino-9H-purin-9-yl)methyl]-5-chloro-1H-indol-2-yl}methyl)-2-[4-(dimethylamino)phenyl]acetamide]
17 | 3390 | Nc1ncnc2c1ncn2Cc1cc(Cl)cc2cc(CNC(=O)N3CCC(c4ccccc4F)C3)[nH]c12 (stereo not drawn) [Example 319, N-({7-[(6-amino-9H-purin-9-yl)methyl]-5-chloro-1H-indol-2-yl}methyl)-3-(2-fluorophenyl)pyrrolidine-1-carboxamide]

Row | IC50 [nM] | Compound
18 | 8030 | Nc1ncnc2c1ncn2Cc1cc(Cl)cc2cc(CNC(=O)c3ccccc3C(=O)N3CCCC3)[nH]c12 [Example 320, N-({7-[(6-amino-9H-purin-9-yl)methyl]-5-chloro-1H-indol-2-yl}methyl)-2-(pyrrolidin-1-ylcarbonyl)benzamide]
19 | 8220 | Nc1ncnc2c1ncn2Cc1cc(Cl)cc2cc(CNC(=O)c3ccccc3OC3CCOCC3)[nH]c12 [Example 321, N-({7-[(6-amino-9H-purin-9-yl)methyl]-5-chloro-1H-indol-2-yl}methyl)-2-(tetrahydro-2H-pyran-4-yloxy)benzamide]
20 | 29900 | Nc1ncnc2c1ncn2Cc1cc(Cl)cc2cc(CNC(=O)c3ccccc3N3CCCCC3)[nH]c12 [Example 322, N-({7-[(6-amino-9H-purin-9-yl)methyl]-5-chloro-1H-indol-2-yl}methyl)-2-(piperidin-1-yl)benzamide]
21 | 345 | Nc1ncnc2c1ncn2Cc1cc(Cl)cc2cc(CNCc3cccc(CN4CCCCC4)c3)[nH]c12 [Example 323, 9-{[5-chloro-2-({[3-(piperidin-1-ylmethyl)benzyl]amino}methyl)-1H-indol-7-yl]methyl}-9H-purin-6-amine]
22 | 12500 | Nc1ncnc2c1ncn2Cc1cc(Cl)cc2cc(CNC(=O)c3ccccc3C(=O)N3CCCCC3)[nH]c12 [Example 324, N-({7-[(6-amino-9H-purin-9-yl)methyl]-5-chloro-1H-indol-2-yl}methyl)-2-(piperidin-1-ylcarbonyl)benzamide]
23 | 3120 | Nc1ncnc2c1ncn2Cc1cc(Cl)cc2cc(CNCc3cccc(OCCN4CCCCC4)c3)[nH]c12 [Example 325, 9-({5-chloro-2-[({3-[2-(piperidin-1-yl)ethoxy]benzyl}amino)methyl]-1H-indol-7-yl}methyl)-9H-purin-6-amine]
24 | 6200 | Cc1onc(-c2ccccc2)c1C(=O)NCc1cc2cc(Cl)cc(Cn3cnc4c(N)ncnc43)c2[nH]1 [Example 326, N-({7-[(6-amino-9H-purin-9-yl)methyl]-5-chloro-1H-indol-2-yl}methyl)-5-methyl-3-phenyl-1,2-oxazole-4-carboxamide]
25 | 5280 | Cn1ccnc1-c1ccccc1C(=O)NCc1cc2cc(Cl)cc(Cn3cnc4c(N)ncnc43)c2[nH]1 [Example 327, N-({7-[(6-amino-9H-purin-9-yl)methyl]-5-chloro-1H-indol-2-yl}methyl)-2-(1-methyl-1H-imidazol-2-yl)benzamide]
26 | 410 | Nc1ncnc2c1ncn2Cc1cc(Cl)cc2cc(CNC(=O)c3ccc4snnc4c3)[nH]c12 [Example 329, N-({7-[(6-amino-9H-purin-9-yl)methyl]-5-chloro-1H-indol-2-yl}methyl)-1,2,3-benzothiadiazole-5-carboxamide]
27 | 1060 | Nc1ncnc2c1ncn2Cc1cc(Cl)cc2cc(CNC(=O)c3ccc4nc[nH]c4n3)[nH]c12 [Example 330, N-({7-[(6-amino-9H-purin-9-yl)methyl]-5-chloro-1H-indol-2-yl}methyl)-3H-imidazo[4,5-b]pyridine-5-carboxamide]
28 | 2580 | Nc1ncnc2c1ncn2Cc1cc(Cl)cc2cc(CNC(=O)c3ccc4[nH]nnc4c3)[nH]c12 [Example 331, N-({7-[(6-amino-9H-purin-9-yl)methyl]-5-chloro-1H-indol-2-yl}methyl)-1H-benzotriazole-6-carboxamide]
29 | 2020 | Nc1ncnc2c1ncn2Cc1cc(Cl)cc2cc(CNC(=O)c3ccc4[nH]nnc4c3)[nH]c12 [Example 332, N-({7-[(6-amino-9H-purin-9-yl)methyl]-5-chloro-1H-indol-2-yl}methyl)-1H-benzotriazole-5-carboxamide]
30 | 1700 | Nc1ncnc2c1ncn2Cc1cc(Cl)cc2cc(CNC(=O)c3cnc4[nH]cnc4c3)[nH]c12 [Example 333, N-({7-[(6-amino-9H-purin-9-yl)methyl]-5-chloro-1H-indol-2-yl}methyl)-3H-imidazo[4,5-b]pyridine-6-carboxamide]
31 | 2040 | Nc1ncnc2c1ncn2Cc1cc(Cl)cc2cc(CNC(=O)c3cc4[nH]nnc4cc3F)[nH]c12 [Example 334, N-({7-[(6-amino-9H-purin-9-yl)methyl]-5-chloro-1H-indol-2-yl}methyl)-5-fluoro-1H-benzotriazole-6-carboxamide]
32 | 401 | Nc1ncnc2c1ncn2Cc1cc(Cl)cc2cc(CNC(=O)c3ccc4ncsc4c3)[nH]c12 [Example 335, N-({7-[(6-amino-9H-purin-9-yl)methyl]-5-chloro-1H-indol-2-yl}methyl)-1,3-benzothiazole-6-carboxamide]
33 | 431 | Nc1ncnc2c1ncn2Cc1cc(Cl)cc2cc(CNC(=O)c3ccc4scnc4c3)[nH]c12 [Example 336, N-({7-[(6-amino-9H-purin-9-yl)methyl]-5-chloro-1H-indol-2-yl}methyl)-1,3-benzothiazole-5-carboxamide]
